For orientation: IC50 means the concentration that inhibits the measured activity by half.

Each structure is given as a SMILES string.

For one assay, the target named is T1, yeast HSP90 (Saccharomyces cerevisiae, UniProt P02829).
T1 construct: made in house; host or cells: E. coli
T1 sequence (P02829 whole entry, looked up): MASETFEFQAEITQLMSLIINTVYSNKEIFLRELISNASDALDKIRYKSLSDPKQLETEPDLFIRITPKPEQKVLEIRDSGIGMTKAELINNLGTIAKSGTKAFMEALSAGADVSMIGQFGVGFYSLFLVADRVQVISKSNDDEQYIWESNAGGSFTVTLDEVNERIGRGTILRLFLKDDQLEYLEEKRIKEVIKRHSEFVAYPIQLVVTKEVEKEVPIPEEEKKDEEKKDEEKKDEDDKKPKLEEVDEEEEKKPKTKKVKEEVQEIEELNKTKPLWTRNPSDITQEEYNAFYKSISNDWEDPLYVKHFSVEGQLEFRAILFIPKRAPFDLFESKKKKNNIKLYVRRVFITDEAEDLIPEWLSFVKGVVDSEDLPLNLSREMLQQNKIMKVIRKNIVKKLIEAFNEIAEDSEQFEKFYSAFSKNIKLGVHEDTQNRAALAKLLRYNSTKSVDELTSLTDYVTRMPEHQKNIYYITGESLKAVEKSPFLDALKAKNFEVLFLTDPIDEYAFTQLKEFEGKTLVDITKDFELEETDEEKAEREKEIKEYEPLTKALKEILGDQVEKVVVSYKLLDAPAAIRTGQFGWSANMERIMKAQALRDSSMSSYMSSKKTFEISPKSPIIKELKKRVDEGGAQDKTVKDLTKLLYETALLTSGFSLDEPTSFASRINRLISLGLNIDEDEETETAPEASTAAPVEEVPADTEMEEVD
In words: Malachite green HSP90 ATPase assay. It is filed as biochemical. Particulars: Hsp90 IC50, activity class. The text has this:
Two methods have been developed to measure the intrinsic ATPase activity of HSP90, using yeast HSP90 as a model system. The first method utilises a regenerating coupled enzyme assay. The second assay, based on the use of malachite green for the measurement of inorganic phosphate, was designed for high throughput screening (HTS) to identify novel HSP90 inhibitor drug candidates.
Colorimetric assays for the determination of phosphate, based on the formation of a phosphomolybdate complex, can be carried out in a few steps with inexpensive reagents and are well suited to the automation required for high throughput screening (see, e.g., Cogan et al., 1999). Enzymes that release inorganic phosphate are assayed using the reaction of the cationic dye, malachite green, with the a complex formed by a reaction of the inorganic phosphate with molybdate to generate a blue-green colour with an absorbance maximum at 610 nm (see, e.g., Baykov et al., 1988; Harder et al., 1994; Maehama et al., 2000). The method has been used in both high throughput (see, e.g., Rumsfeld et al., 2000) and ultra-high throughput screening formats (see, e.g., Layery et al., 2001) for a variety of non-HSP90 ATPases. However, this method is complicated by the non-enzymatic hydrolysis of ATP in the presence of acidic malachite green reagent, causing an increase in colour (see, e.g., Chan et al., 1986; Henkel et al., 1988). This process is mediated by molybdate and can be overcome by the addition of sodium citrate immediately after the reagent (see, e.g., Lanzetta et al., 1979; Schirmer et al., 1998; Baginski et al., 1975). This modification has been adapted to the 96-well microtitre plate assay previously described for other ATPases (see, e.g., Lanzetta et al., 1979) to produce the following protocol for HSP90 ATPase, which is suitable for high throughput screening.
Chemicals are of the highest purity commercially available and all aqueous solutions are made up in AR water. Because of the need to minimise contamination with inorganic phosphate, precautions should be taken with solutions and apparatus used in the assays. Glassware and pH meters are rinsed with double distilled or deionised water before use and, wherever possible, plastic ware should be used. Gloves are worn for all procedures. • (1) Immulon 96-well (Thermo Labsystems, Basingstoke, UK) or Cliniplate 384-well flat-bottomed polystyrene multiwell plates (Thermo Labsystems). • (2) Assay buffer of (a) 100 mM Tris-HCl, pH 7.4, (b) 20 mM KCl, (c) 6 mM MgCl2. Stored at 4° C. • (3) 0.0812% (w/v) malachite green (M 9636, Sigma Aldrich Ltd., Poole, UK). Stored at room temperature. • (4) 2.32% (w/v) polyvinyl alcohol USP (P 1097, Sigma Aldrich Ltd, Poole, UK) in boiling water (see Comment 1), allowed to cool, and stored at room temperature. • (5) 5.72% (w/v) ammonium molybdate in 6 M hydrochloric acid. Stored at room temperature. • (6) 34% (w/v) sodium citrate. Stored at room temperature. • (7) ATP, disodium salt, special quality (519979, Boehringer Mannheim, Lewes, UK). Stored at 4° C. • (8) E. coli expressed yeast HSP90 protein, purified >95% (see, e.g., Panaretou et al., 1998) and stored at −80° C. as 10 μl aliquots containing 0.5 mg of protein. Method
The following protocol was used: • (1) On the day of use, prepare the malachite green reagent from the stock solutions. Mix (a) 2 parts of malachite green, (b) 1 part of polyvinyl alcohol, (c) 1 part of ammonium molybdate, and (d) 2 parts of water. Initially, the reagent is a dark brown colour, but after standing at room temperature for about 2 h, this becomes a golden yellow colour and is ready for use. • (2) For the high throughput screening assays, the test compounds are dissolved at 200 μM in 2.0% DMSO and contained in daughter plates derived from the chemical libraries. Transfer 5 μl of each sample from the daughter plate to each well of the assay plate using automated equipment (see Comment 3). This represents a final concentration in the well of 40 μM.
For the compound `Cc1[nH]nc(-c2cc(Cl)c(O)cc2O)c1-c1ccc2c(c1)OCCO2` [Example 109], the IC50 is less than 10 µM.

Staying with this assay, now noted: activity class; read-out: Hsp90 IC50.
As for `O=C(NCc1ccc(-c2c[nH]nc2-c2cc(Cl)c(O)cc2O)cc1)c1ccc(-c2c3ccc(=O)cc-3oc3cc(O)ccc23)c(C(=O)O)c1` [Example 106, N-{4-[3-(5-Chloro-2,4-dihydroxy-phenyl)-1H-pyrazol-4-yl]-benzyl}-6-(6-hydroxy-3-oxo-3H-xanthen-9-yl)-isophthalamic acid], the IC50 was less than 10 µM.
The same measure, in the same setting: for `Cc1[nH]nc(-c2cc(Cl)ccc2O)c1-c1ccc2c(c1)OCCO2` [Example 107] the value was 10 to 100 µM; for `Cc1[nH]nc(-c2cc(F)ccc2O)c1-c1ccc2c(c1)OCCO2` [Example 108], less than 10 µM.
As to `Cc1ccc(O)c(-c2n[nH]c(C)c2-c2ccc3c(c2)OCCO3)c1` [Example 110], the IC50 is more than 10 µM.
The same measure, in the same setting: the figure for `Cc1[nH]nc(-c2ccc(S(N)(=O)=O)cc2)c1-c1ccc2c(c1)OCCO2` [Example 111] is more than 10 µM; for `CC(=O)Nc1ccc(-c2n[nH]c(C)c2-c2ccc3c(c2)OCCO3)cc1` [Example 112] it is more than 10 µM; for `CC(=O)Nc1cccc(-c2n[nH]c(C)c2-c2ccc3c(c2)OCCO3)c1` [Example 113] it is more than 10 µM.
With `CCOC(=O)c1ccc(-c2n[nH]c(C)c2-c2ccc3c(c2)OCCO3)cc1` [Example 114], the IC50 was more than 10 µM.
In the case of `Cc1[nH]nc(-c2ccc(C(=O)O)cc2)c1-c1ccc2c(c1)OCCO2` [Example 115], the IC50 is more than 10 µM.
On the same count and under the same terms, the figure for `CCOC(=O)c1cccc(-c2n[nH]c(C)c2-c2ccc3c(c2)OCCO3)c1` [Example 116] is more than 10 µM; for `Cc1[nH]nc(-c2ccc(C#N)cc2)c1-c1ccc2c(c1)OCCO2` [Example 117] it is more than 10 µM.
Still for that read-out and setting: for `Cc1[nH]nc(-c2cccc(C#N)c2)c1-c1ccc2c(c1)OCCO2` [Example 118] the value was more than 10 µM; for `CCc1cc(-c2n[nH]c(C)c2-c2nc3ccccc3s2)c(O)cc1OCC(=O)NN` [Example 119], more than 10 µM; for `CCc1cc(-c2n[nH]cc2-c2ccc3c(c2)OCO3)c(O)cc1OC` [Example 120], more than 10 µM.
`Cc1[nH]nc(-c2ccc3c(c2O)OCO3)c1-c1ccc2c(c1)OCCO2` [Example 121]: the IC50 was more than 10 µM.
Still for that read-out and setting: the figure for `COc1ccc(-c2n[nH]cc2-c2ccc3c(c2)OCCO3)c(O)c1` [Example 122] is more than 10 µM; for `Cc1[nH]nc(-c2ccc(OCC(=O)O)cc2O)c1-c1ccc(F)cc1` [Example 123] it is more than 10 µM.
On to `CCc1cc(-c2n[nH]cc2-c2nc(C)cs2)c(O)cc1OCc1cccc(C)c1` [Example 124], for which the IC50 is more than 10 µM.
On to `O=C(O)COc1ccc(-c2n[nH]cc2-c2ccc3c(c2)OCCO3)c(O)c1` [Example 125], for which the IC50 was more than 10 µM.
On to `CCCc1cc(-c2n[nH]cc2-c2ccccc2)c(O)cc1OC` [Example 126], for which the IC50 is more than 10 µM.
As to `Cc1[nH]nc(-c2cc(Cl)c(O)cc2O)c1-c1ccccc1` [Example 127], the IC50 was more than 10 µM.
For the compound `CCc1cc(-c2n[nH]cc2-c2ccccc2)c(O)cc1OC` [Example 128], the IC50 is more than 10 µM.
On to `Cc1nc(-c2c[nH]nc2-c2ccc(O)cc2O)cs1` [Example 129], for which the IC50 was more than 10 µM.
Consider `CCOc1cc(O)c(-c2n[nH]cc2-c2nc(C)cs2)cc1CC` [Example 130], for which the IC50 is more than 10 µM.
For `CCc1cc(-c2n[nH]cc2-c2nc(C)cs2)c(O)cc1OC` [Example 131], the IC50 was more than 10 µM.
On the same count and under the same terms, for `COc1ccc(-c2c(-c3ccc(O)c(C)c3O)n[nH]c2C)cc1` [Example 132] the value was more than 10 µM; for `Cc1ccc(-n2cc(-c3c[nH]nc3-c3ccc(O)cc3O)cn2)cc1` [Example 136], more than 10 µM.
Take `Cc1[nH]nc(-c2ccc(O)cc2O)c1-c1cnn(-c2ccccc2)c1` [Example 137]: the IC50 is more than 10 µM.
As to `Cc1[nH]nc(-c2cc(Cl)c(O)c(Cl)c2O)c1-c1ccccc1` [Example 138], the IC50 is more than 10 µM.
On to `CCCc1cc(-c2n[nH]cc2-c2ccc3c(c2)OCO3)c(O)cc1O` [Example 140], for which the IC50 was more than 10 µM.
For `CCc1cc(-c2n[nH]cc2-c2ccc(OC)cc2)c(O)cc1O` [Example 141], the IC50 was 10 to 100 µM.
Take `Oc1ccc(-c2n[nH]c(C(F)(F)F)c2-c2ccc3c(c2)OCCO3)c(O)c1` [Example 142]: the IC50 is more than 10 µM.
For `Cc1ncc(-c2c(-c3ccc(O)cc3O)n[nH]c2C(F)(F)F)s1` [Example 143], the IC50 is more than 10 µM.
On to `Oc1ccc(-c2n[nH]c(C(F)(F)F)c2-c2ccccc2Cl)c(O)c1` [Example 144], for which the IC50 was more than 10 µM.
With `CCc1cc(-c2n[nH]cc2-c2cnn(-c3ccccc3)c2)c(O)cc1O` [Example 145], the IC50 is more than 10 µM.
As for `CCc1cc(-c2n[nH]c(C)c2-c2nc3ccccc3s2)c(O)cc1O` [Example 146], the IC50 was more than 10 µM.
The same measure, in the same setting: the figure for `COc1ccc(-c2c(-c3cc(Cl)c(F)cc3O)n[nH]c2C)cc1` [Example 147] is more than 10 µM.
The same measure, in the same setting: for `Cc1[nH]nc(-c2cccc(Cl)c2Cl)c1-c1ccc2c(c1)OCCO2` [Example 150] the value was more than 10 µM; for `COc1ccc(-c2c(C)n[nH]c2-c2cnc(N)nc2)cc1` [Example 151, 5-[4-(4-Methoxy-phenyl)-5-methyl-2H-pyrazol-3-yl]-pyrimidin-2-ylamine], more than 10 µM; for `COc1ccc(-c2c(C)n[nH]c2-c2cc(C)nc(N)n2)cc1` [Example 152, 4-[4-(4-Methoxy-phenyl)-5-methyl-2H-pyrazol-3-yl]-6-methyl-pyrimidin-2-ylamine], more than 10 µM.
As to `N#CCCCCOc1cccc(-c2c[nH]nc2-c2cc(Cl)c(O)cc2O)c1` [Example 155], the IC50 was less than 10 µM.
Consider `COc1ccc(-c2ccc(-c3c[nH]nc3-c3cc(Cl)c(O)cc3O)cc2)cc1OC` [Example 157], for which the IC50 was less than 10 µM.

The assay is the same for the next values; noted with them: activity range, ATPase assay; read-out: ATPase IC50.
For the compound `Cc1[nH]nc(-c2ccc(C(N)=O)cc2)c1-c1ccc2c(c1)OCCO2` [Example 158], the IC50 is more than 50 µM.
In the case of `Cc1[nH]nc(-c2ccc(C(=O)NCC3CCCO3)cc2)c1-c1ccc2c(c1)OCCO2` (stereo not drawn) [Example 159], the IC50 is more than 50 µM.
Same read-out and setting: the figure for `Cc1[nH]nc(-c2ccc(C(=O)Nc3cccnc3)cc2)c1-c1ccc2c(c1)OCCO2` [Example 160] is more than 50 µM.
On to `Cn1cc(-c2ccc(Br)cc2)c(-c2cc(Cl)c(O)cc2O)n1` [Example 161, 4-[4-(4-Bromo-phenyl)-1-methyl-1H-pyrazol-3-yl]-6-chloro-benzene-1,3-diol], for which the IC50 is more than 50 µM.
Turning to `CCc1cc(-c2nn(C)cc2-c2ccc(OC)c(OC)c2)c(O)cc1O` [Example 162, 4-[4-(3,4-Dimethoxy-phenyl)-1-methyl-1H-pyrazol-3-yl]-6-ethyl-benzene-1,3-diol], the half-inhibitory concentration (IC50) was more than 50 µM.
In the case of `Cc1c(-c2ccc(Br)cc2)c(-c2cc(Cl)c(O)cc2O)nn1C` [Example 163], the IC50 is more than 50 µM.
Take `Cc1c(-c2ccccc2)c(-c2cc(Cl)c(O)cc2O)nn1C` [Example 164, 4-Chloro-6-(1,5-dimethyl-4-phenyl-1H-pyrazol-3-yl)-benzene-1,3-diol]: the IC50 was more than 50 µM.
Take `COc1ccc(-c2cn(C)nc2-c2cc(Cl)c(O)cc2O)cc1OC` [Example 165]: the IC50 is more than 50 µM.

The values above are taken from patent US7247734B2 (Vernalis (Cambridge) Limited, priority 2001, dated 2007).
